This note sets out measurements from patent US5066644A, “Derivatives of thiazolidine-4-carboxylic acid, its preparation and pharmaceutical compositions containing it” (Poli Industria Chimica S.p.A., priority 1989, dated 1991).

Holding throughout (type): in vivo
Assay [1] has as its system rosette forming cells. As to the kind of experiment: Rosette forming cells (primary response) in prednisolone-immunodepressed mice. The following applies: 200 mg/kg/die os; for Rosette forming cells change %: vs. control group. The method, then: The compounds of the invention are also active in the test of the rosette forming cells (primary response; II° type) in prednisolone immunodepressed mice (S. D. Wilson, Immunology, 21, 233, 1971).
Male COBS CD-1 mice weighing about 25 g were treated for 7 days twice a day, with the compounds of the invention and at the second and third day with prednisolone at the dose of 5 mg/kg/s.c. (0.05 ml/10 g).
After 4 days from the start of the treatment the
10 animals were immunized with 5×10^8 sheep red blood cells in 0.2 ml of PBS by intraperitoneal route. The red blood cells were prepared by centrifugating the citrated sheep blood at 1500 rpm for 15 min.; the precipitated red blood cells were washed twice at 1200 rpm for 10 min. in PBS removing the first layer, then suspended again in PBS and counted adjusting at 2.5×10^9 cells/ml.
After 6 days from the immunization the rosette test was carried out by killing the mice and removing the spleen, which was placed in 1 ml of Hank solution in ice-bath and then triturated, homogenated and gauze-filtered. The homogenate was washed twice in Hank, centrifugating at 1200 rpm for 10 min. and then suspended again. The suspension was adjusted to 6×10^7 cells/ml by counting at the Coulter Counter after lysis of the red blood cells. 100 μl of spleen cells suspension (6×10^7 /ml)+100 μl of red blood cells suspension (3×10^8 /ml) were mixed in 0.8 ml of Hank stirring slightly for 1 minute. The samples were incubated for 24 h at+4° C. avoiding any stirring. The samples were then stirred and the number of rosette forming cells/ml was evaluated by means of the Burker apparatus.

Assay [2] deals with reticulo-endothelial system. Nature of the assay: Activity of the reticulo-endothelial system (colloidal charcoal clearance) in cyclophosphamide-immunodepressed mouse. The settings on record: 100 mg/kg/die i.p.; for Absorbance Δ (0'-20'): means ± SE of 10 mice, absorbance at 640 nm. The method, then:
The compounds of the invention are also active in the test of the activity of the reticulo-endothelial system in the mouse immunodepressed by cyclophosphamide (Biozzi G. et al., Brit. J. Path., 34, 441, 1953). COBS CD-1 mice were injected i.v. with colloidal charcoal (0.32 ml of china ink/ml of saline), 10 μl of retroorbital blood were then taken out immediately before and after 1, 10 and 20 min. from the intravenous injection, the blood sample was placed in 3 ml of HCl 0.1 N and the absorbance was evaluated at 640 nm and the change of absorbance was evaluated between the time 0 and 20 min. The animals were treated with cyclophosphamide (100 mg/kg i.p.) from the third to the fifth day of treatment and with the compounds under test for 10 consecutive days; the day after the last treatment the test was carried out.

Assay [3] relates to E. coli. Nature of the assay: Endoperitoneal E. coli infection in mice. The settings on record: 200 mg/kg/die os; for N° dead mice/N° treated mice: death-rate recorded 7-8 days after infection. The method, then: The compounds were tested in endoperitoneal infection in mice. Male COBS CD-1 mice weighing 22-25 g were inoculated i.p. with 0.5 ml/mouse of a pathogenic E.coli suspension (in saline solution+0.5% porcine gastric mucine), having a transmittance of about 50%. The mice were treated orally with the compounds twice a day from two days before until the day of the infection, 7 hours before the inoculation.
The death-rate was recorded for about 7-8 days after the infection.

Assay [4] deals with delayed hypersensitivity by DNCB. As to the kind of experiment: Delayed hypersensitivity induced by DNCB in prednisolone-immunodepressed mice. The following applies: 200 mg/kg/die os; for Weight left ear/Weight right ear: 24 hours after challenge; for Increase %: vs. control group. The method, then:
Male COBS CD-2 mice weighing about 30 g were sensitized with 25 μl of dinitrochlorobenzene (DNCB) at the concentration of 20 mg/ml in acetone applied on a zone of the abdomen depilated at least 2 hours before.
After 12 hours the animals were challenged with 5 μl of DNCB at the concentration of 10 mg/ml in acetone applied on the external surface of the left auricolar pinna.
In order to carry out this operation the mice were slightly anesthetized with ether. The mice were treated with the compounds under examination from two days before until the day of sensitization and with the compounds and with prednisolone (0.5 mg/kg/die s.c.; 0.5 ml/10 g) from the tenth day after sensitization until the day when challenge occurred.
The animals were killed 24 hours after the challenge; both ears were cut and weighed. The values are expressed as the ratio between the left ear (sensitized) and the right one (unsensitized). […] The increase was higher than that obtained after oral administration of PGT.

Assay [5] concerns peritoneal macrophages. As to the kind of experiment: Superoxide anion production by peritoneal macrophages from prednisolone-immunodepressed mice. The settings on record: 200 mg/kg/die i.p. + prednisolone 0,5 mg/kg/die/s.c.; macrophages stimulated with phorbol myristate acetate. The source says: Since the production of superoxide anion (O2 ) plays an important role in the microbicidal activity of macrophages (N. P. Cumming, M. J. Pabst, J.Exp.Med., 152, 1649, 1980), the showing of a stimulation of the superoxide anion in the macrophages by drugs provides a very important test for the evaluation of immunostimulating activity. The production of O2 in peritoneal macrophages isolated from prednisolone immunodepressed animals treated with the compounds of the invention was therefore evaluated. The mice were treated subcutaneously for two days with 0.5 mg/kg/day of prednisolone and with the compounds under examination at the dose of 100 mg/kg twice a day, whereas the morning of the animals sacrifice the animals received the compounds only. The macrophages were then isolated by means of a peritoneal washing and cultured in RPMI-1640 added with 10% foetal calf serum, at the concentration of 1×10^6 cells/ml at the temperature of ±37° C. Amounts of 1 ml of cell suspension were incubated for 15' at 37° C. with horse heart cytochrome C and stimulated with phorbol myristate acetate (H. Nielsen, Eur.J.Clin.Pharmacol., 30, 90, 1986). A specrophotometric determination at λ=550 nm of the reduced ferricytochroma using an extinction coefficient E(550)=29.5 mM was then carried out. As it turns out from Table 1, the prednisolone treatment induces an immunosuppression resulting in a lesser production of superoxide anion; the contemporaneous treatment with the compounds of the invention stimulates the 02 production by macrophages up to values close to those of control animals. The compounds have an activity which is from similar to higher than that of PGT at equiponderal doses.

The structures appear in SMILES notation. Non-standard residues stand in square brackets, D forms with d. Residues, ends and D or L forms follow the SMILES beside them. ξ: configuration not given here. *: point of attachment. pGlu = O=C1CC[C@@H](C(=O)O)N1; Morpholide = C1CN(*)CCO1; ξThz = O=C(O)C1CSCN1

Consider `NC(=O)C1CSCN1C(=O)[C@@H]1CCC(=O)N1` (stereo partly drawn) [Ia, 3-Pyroglutamyl-thiazolidine-4-carboxamide] ([pGlu]-[ξThz]-NH2), for which, in assay [1], the “Rosette forming cells/spleen cells %” value is given as 1.140 ± 0.032% and the “Rosette forming cells change %” value is given as “+34.12%”. In addition, in assay [2], the “Variation versus the cyclophosphamide treated group %” value is “+15.62%” and the “Absorbance Δ (0'-20')” value is reported as 0.370 ± 0.013. For the same compound, in assay [3], the “Protection (%)” value came out at 40% and the “N° dead mice/N° treated mice” value was 6/10. Besides, in assay [4], the “Weight left ear/Weight right ear” value is on record as 1.688 ± 0.029 and the Increase % came out at 27.68%. The “nmol cytochrome C reduced/1 × 10^6 macrophages (mean ± S.E.)” value in assay [5] is on record as 9.25 ± 0.48 nmol cytochrome C reduced/1 ×.

On to `O=C1CC[C@@H](C(=O)N2CSCC2C(=O)N2CCOCC2)N1` (stereo partly drawn) [Ib, N-(3-Pyroglutamyl-thiazolidine-4-carbonyl)morpholine] ([pGlu]-[ξThz]-Morpholide), for which, in assay [1], the “Rosette forming cells/spleen cells %” value is given as 1.138 ± 0.038% and the “Rosette forming cells change %” value was “+33.88%”. Besides, in assay [2], the “Variation versus the cyclophosphamide treated group %” value is “+19.37%” and the “Absorbance Δ (0'-20')” value is reported as 0.382 ± 0.021. Moreover, in assay [3], the “Protection (%)” value is 40% and the “N° dead mice/N° treated mice” value is on record as 6/10. Also, in assay [4], the “Weight left ear/Weight right ear” value came out at 1.702 ± 0.026 and the Increase % turned out to be 28.74%. Further, the “nmol cytochrome C reduced/1 × 10^6 macrophages (mean ± S.E.)” value in assay [5] is recorded as 9.62 ± 0.63 nmol cytochrome C reduced/1 ×.

For the compound `CCNC(=O)C1CSCN1C(=O)[C@@H]1CCC(=O)N1` (stereo partly drawn) [Ic, N-(3-pyroglutamyl-thiazolidine-4-carbonyl)-ethylamine] ([pGlu]-[ξThz]-NHEt), in assay [1], the “Rosette forming cells/spleen cells %” value is given as 1.145 ± 0.032% and the “Rosette forming cells change %” value was “+34.71%”. For the same compound, in assay [2], the “Variation versus the cyclophosphamide treated group %” value was “+15.94%” and the “Absorbance Δ (0'-20')” value amounted to 0.371 ± 0.016. In assay [3], the “Protection (%)” value was determined as 40% and the “N° dead mice/N° treated mice” value was 6/10. In assay [4], the “Weight left ear/Weight right ear” value is reported as 1.706 ± 0.028 and the Increase % is 29.05%. Further, the “nmol cytochrome C reduced/1 × 10^6 macrophages (mean ± S.E.)” value in assay [5] is 7.83 ± 0.72 nmol cytochrome C reduced/1 ×.

Consider `O=C1CC[C@@H](C(=O)N2CSCC2C(=O)O)N1` (stereo partly drawn) [PGT, 3-pyroglutamyl-thiazolidine-4-carboxylic acid, reference compound] ([pGlu]-[ξThz]-OH), for which, in assay [1], the “Rosette forming cells/spleen cells %” value is 1.125 ± 0.040% and the “Rosette forming cells change %” value is “+32.35%”. Further, in assay [2], the “Variation versus the cyclophosphamide treated group %” value was “+14.06%” and the “Absorbance Δ (0'-20')” value was 0.365 ± 0.018. Moreover, in assay [3], the “Protection (%)” value is on record as 20% and the “N° dead mice/N° treated mice” value is recorded as 8/10. In assay [4], the “Weight left ear/Weight right ear” value is 1.579 ± 0.027 and the Increase % came out at 19.44%. The “nmol cytochrome C reduced/1 × 10^6 macrophages (mean ± S.E.)” value in assay [5] is listed as 8.85 ± 0.75 nmol cytochrome C reduced/1 ×.
